Tested on: C57BL/6 male mouse
Assay: Novel object recognition test with restraint stress
Format: in vivo
Settings: for preference for objects A and B on the fourth day (training day): abdominal injection 30 min before; for preference for objects A and B on the fourth day (training day) / preference for new object C on the fifth day after 24 hours: + restraint stress, mean±standard error; for preference for new object C on the fifth day after 24 hours: abdominal injection
Experimental: In all experiments, C57BL/6 male mouse, a kind of B6 mouse of 8-12 weeks old, were used. The experimental groups were divided into 7 experimental groups according to whether they were stressed or not and the type and weight of injected drugs as follows. […] Immediately after each behavioral experiment, restraint stress was applied by placing the mouse in a 50 mL tube pre-pierced with about 9 pores for 90 minutes. A mouse was placed in an open-field box (40 cm×40 cm×40 cm) made of acryl for 15 minutes every day for 3 days to fit and stabilize to the box. On the training day of the fourth day, two different objects made of acryl (objects A and B) were placed at regular intervals in the box and the mice were trained to freely search objects A and B for 10 minutes. […] The search time for each object (A and C or B and C) was quantified and the preference for the object was expressed as a ratio of search time (Preference (%)=C/(A+C)*100). […] To compare the results of the said two behavioral experiments, SPSS 21.0 (SPSS Inc, Chicago, Ill.) and Student's T-test and one-way ANOVA were used for statistical analysis.

[1] = D-serine 500 mg (second weight)

| Structure (SMILES) | preference for objects A and B on the fourth day (training day) (Caffeine 10 mg) | preference for new object C on the fifth day after 24 hours (Caffeine 10 mg) | preference for new object C, comparison among drug groups (D-Serine 50 mg + restraint stress as printed, 24-hour results, one-way ANOVA) | preference for objects A and B on the fourth day (training day) (D-serine 50 mg (first weight)) | preference for new object C on the fifth day after 24 hours (D-serine 50 mg (first weight)) | preference for objects A and B on the fourth day (training day) [1] | preference for new object C on the fifth day after 24 hours [1] |
| --- | --- | --- | --- | --- | --- | --- | --- |
| Cn1c(=O)c2c(ncn2C)n(C)c1=O [caffeine] | 49.92±2.75% | 62.06±2.27% |  |  |  |  |  |
| N[C@H](CO)C(=O)O [D-serine] |  |  | highest preference | 52.12±2.81% | 63.63±3.94% | 47.83±3.97% | 67.55±3.46% |
